Reference: patent US8518942B2, “Caspase inhibitors and uses thereof” (Buck Institute for Research on Aging, priority 2008, dated 2013)

Assays:
caspase-9 = molecular target: T1, caspase-9 (Homo sapiens, UniProt P55211); assay: Irreversible inhibitor kinetic assay (progress curve), caspase-9, substrate Ac-LEHD-AFC; format: biochemical; conditions: casp-9; duplicate, SD included
T1 construct: gift: Guy Salvesen's laboratory, Burnham Institute (La Jolla, Calif.)
T1 sequence (P55211 1-315 limits assumed): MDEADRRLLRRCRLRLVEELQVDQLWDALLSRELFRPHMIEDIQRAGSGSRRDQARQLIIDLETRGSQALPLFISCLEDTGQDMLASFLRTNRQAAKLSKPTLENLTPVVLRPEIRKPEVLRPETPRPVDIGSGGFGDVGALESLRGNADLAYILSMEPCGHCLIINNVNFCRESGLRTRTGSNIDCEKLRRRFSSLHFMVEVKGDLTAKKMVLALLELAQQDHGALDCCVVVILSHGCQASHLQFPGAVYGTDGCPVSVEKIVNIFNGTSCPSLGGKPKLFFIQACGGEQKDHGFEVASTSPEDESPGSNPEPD
T1 sequence (P55211 331-416 limits assumed): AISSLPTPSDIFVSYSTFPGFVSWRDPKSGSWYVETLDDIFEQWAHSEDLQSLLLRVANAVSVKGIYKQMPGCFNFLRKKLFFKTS
Description: Caspases-3, -6, -7, -8, and -9 were provided by Guy Salvesen's laboratory at the Burnham Institute (La Jolla, Calif.). Caspase-1 was purchased from EMD Biosciences (San Diego, Calif.) and Caspase-2 was purchased from Biomol International (Plymouth Meeting, Pa.). Caspase substrates Ac-DEVD-AMC, Ac-VDVAD-AFC, and Ac-LEHD-AFC were purchased from EMD Biosciences (San Diego, Calif.) and Ac-VDVAD-AMC was purchased from Biomol International (Plymouth Meeting, Pa.). The proteolytic cleavage of N-acyl aminocoumarins by caspases was conducted in Dynatech Microfluor fluorescence 96-well microtiter plates, and readings were taken on a Molecular Devices Spectra Max Gemini XS instrument. The excitation wavelength was 370 nm and the emission wavelength was 455 nm for AMCA substrates, the excitation wavelength was 355 nm and the emission wavelength was 450 nm for peptidyl AMC substrates, and the excitation wavelength was 430 nm and the emission wavelength was 535 nm for peptidyl AFC substrates.
The kinact/Ki for inhibitors were determined under pseudo-first order conditions using the progress curve method (Eckici et al. (2006) J. Med. Chem., 49: 5728-5749; Bieth (1995) Meth. Enzymol., 248: 59-84). Assay wells contained a mixture of inhibitor and AMC or AFC substrate in buffer. Aliquots of caspase were added to each well to initiate the assay. Hydrolysis of the AMC or AFC substrate was monitored fluorometrically for 45 min. To determine the inhibition parameters, time points for which the control ([I]=0) was linear were used. For each inhibitor, a kobs was calculated for at least four different concentrations of inhibitors via a nonlinear regression of the data according to the equation P=(vi/kobs)[1−exp(−kobst) (where product formation=P, […], and the first-order rate constant=kobs). If kobs varied linearly with [I], then the association constant kass was determined by linear regression analysis using kobs=(kass[I])/(1+[S]/Km) where [S] is the concentration of the substrate. […] Inhibition was measured in duplicate and the average of is reported. […]

Caspase 3 = molecular target: T2, Caspase 3 (Homo sapiens, UniProt P42574); assay: Blots of full-length huntingtin (23Q & 148Q) treated with Caspase 3 plus inhibitor; format: biochemical; conditions: for Proteolysis of Htt at amino acid 513 (caspase-3 site): 1-100 nM; for Inhibition of Caspase 3 cleavage of full-length huntingtin (blot): 23Q & 148Q, at 0.1 μM, 1.0 μM and 10 μM; for Blocking the cleavage of Htt at amino acid 513 mediated by caspase-3: conclusion
T2 sequence (P42574 29-175 limits assumed): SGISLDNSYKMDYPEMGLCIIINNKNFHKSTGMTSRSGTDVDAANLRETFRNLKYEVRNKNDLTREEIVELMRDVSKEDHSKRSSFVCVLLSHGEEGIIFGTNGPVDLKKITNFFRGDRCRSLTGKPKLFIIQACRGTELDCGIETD
T2 sequence (P42574 176-277 limits assumed): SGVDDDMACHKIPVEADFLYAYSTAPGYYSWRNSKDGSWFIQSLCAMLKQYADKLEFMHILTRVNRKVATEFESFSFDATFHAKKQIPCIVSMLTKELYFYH

Row | kinact/Ki (caspase-9) | Proteolysis of Htt at amino acid 513 (caspase-3 site) (Caspase 3) | Inhibition of Caspase 3 cleavage of full-length huntingtin (blot) (Caspase 3) | Blocking the cleavage of Htt at amino acid 513 mediated by caspase-3 (Caspase 3) | Structure (SMILES)
1 | 18,250 ± 4,050 s^−1/M^−1 | blocked | inhibition | affective at blocking | C[C@@](NS(=O)(=O)Cc1ccccc1)(c1cn([C@@H](CC(=O)O)C(=O)COc2c(F)c(F)cc(F)c2F)nn1)C1CCCCC1 [MJL-001i]
2 | 7,550 ± 1,650 s^−1/M^−1 | blocked | inhibition | affective at blocking | C[C@@](NC(=O)CCCC(=O)O)(c1cn([C@@H](CC(=O)O)C(=O)COc2c(F)c(F)cc(F)c2F)nn1)C1CCCCC1 [MJL-002i]
3 | 28,100 ± 2,500 s^−1/M^−1 | blocked | inhibition | affective at blocking | C[C@@](NC(=O)Cc1ccccc1)(c1cn([C@@H](CC(=O)O)C(=O)COc2c(F)c(F)cc(F)c2F)nn1)C1CCCCC1 [MJL-003i]
